Measurements: US9877479B2, “Pamoic acid blocks ethelyne signaling” (THE REGENTS OF THE UNIVERSITY OF CALIFORNIA, priority 2010, dated 2018)
Entries after “also recorded” stand apart in the source; their conditions may differ.

What was measured:
Assay type in all cases: in vivo
[1] = tested on: auxin inducible reporter gene called DR5; assay: Auxin inducible reporter gene DR5 expression; conditions: auxin treatment; PA especially at high levels
Protocol: The effects of auxin on an auxin inducible reporter gene called DR5 were measured. Normally, auxin treatment results in increased expression of DR5, which is evidenced by blue color in the roots and leaf tip.

[2] = tested on: Wild type Arabidopsis seedlings; assay: Ethylene dependent seedling triple response, dark, saturating ethylene
Protocol: (§1) FIG. 5. Wild type Arabidopsis seedlings were grown for four days in the dark in the presence of saturating ethylene (100 ppm) and either 0 or 10 μM pamoic acid after which it was determined whether aspects of the ethylene dependent seedling triple response were affected.
FIG. 6. Wild type Arabidopsis seedlings were grown for four days in the dark in the presence of either the ethylene perception inhibitor AgNO3 or saturating ethylene (100 ppm) along with either 0 or 10 μM pamoic acid. Following this, hypocotyl length and number of seedlings presenting an ethylene dependent apical hook in the presence of saturating ethylene (shown as percentages) were determined (n=40).
FIG. 7. Wild type Arabidopsis seedlings were grown for four days in the dark in the presence of either air or saturating ethylene (100 ppm) along with either 0 or 10 μM pamoic acid. Following this, root length was measured for each treatment (n=40).
(§2) This is a dark phenotype that results in severe stunting of shoot and root growth along with a pronounced apical hook in the presence of saturating ethylene. This phenotype is ultimately conditioned by auxin acting through ethylene. […] FIG. 5 represents a mutant that has constitutive ethylene signaling (ctr1) and FIGS. 6 and 7 represents wild type treated with ethylene+/−PA.

[3] = tested on: Mutant Arabidopsis seedlings (ctrl-3); assay: Constitutive ethylene response phenotype of mutant seedlings
Protocol: FIG. 3. Mutant Arabidopsis seedlings (ctrl-3) that have a constitutive ethylene response phenotype, including severe root shortening dependent on unregulated ethylene signaling, were grown in the light in nutrient medium supplemented with either 0 or 10 μM pamoic acid for 7 days. Following this, roots of each were measured (n=40).
as §1, §2

[4] = tested on: Flowers of Dianthus caryophyllus (carnation); assay: Ethylene dependent flower senescence of cut carnations; conditions: cut flowers in water supplemented with 50 μM pamoic acid, observed to Day 8
Protocol: FIG. 8. Flowers of Dianthus caryophyllus (carnation) were harvested and immediately placed cut side down into either water or water supplemented with 50 μM pamoic acid.

seedling roots [5] = assay: Growth of seedlings on increasing amounts of PA (root growth)
Protocol: (§3) This is not a toxicity issue in due to the data in panels 10B and C. In panel 10B, seedlings were grown in the absence or presence of a highly inhibitory amount of NAA. A subset of these seedlings also had PA added to them. […] Gravitropism is a well know auxin dependent phenomenon.

seedling roots [6] = assay: Root growth in presence of a highly inhibitory amount of NAA, with or without PA; conditions: PA added
Protocol: as §3

wild type roots = assay: Gravitropic response of seedlings
Protocol: as §3

ethylene inducible genes = assay: Ethylene inducible gene expression in presence of PA; conditions: ethylene treatment in the presence of PA (panel 12A); listed as PA
Protocol: (§4) Since PA reduces ethylene response, it was natural to assume that it would also reduce ethylene mediated gene expression. […] PA was then tested on gene expression that was dependent on auxin and ethylene.

[7] = tested on: genes that require both ethylene and auxin for induction; assay: Expression of genes dependent on auxin and ethylene in presence of PA; conditions: in the presence of PA (panel 12B)
Protocol: as §4

[8] = wild type, four days in the dark, saturating ethylene (100 ppm), 10 μM pamoic acid

| Compound | DR5 expression [1] | ethylene response phenomena including apical hook formation and root growth inhibition ([2]; wild type treated with ethylene +/- PA (FIGS. 6 and 7)) | ethylene dependent apical hook [2, 8] | root length compared to seedlings not treated with pamoic acid [2, 8] | constitutive ethylene response of ctrl-3 mutants ([3]; ctrl-3 mutants) | ethylene response phenomena including apical hook formation and root growth inhibition ([3]; mutant with constitutive ethylene signaling (ctr1), FIG. 5) | petal inrolling or petal senescence [4] | root growth at high concentrations of PA (seedling roots [5]; high concentrations of PA) | root length with increasing amounts of PA (seedling roots [5]; increasing amounts of PA) | length of PA+NAA treated roots relative to NAA treated roots (seedling roots [6]) | gravitropism of roots and shoots (wild type roots; in the presence of PA) | gravitropic response of seedling roots (wild type roots; wild type roots treated with PA) | expression of ethylene inducible genes following ethylene treatment (ethylene inducible genes) | expression of two genes that require both ethylene and auxin for induction [7] |
| --- | --- | --- | --- | --- | --- | --- | --- | --- | --- | --- | --- | --- | --- | --- |
| CC(C)(Oc1ccc(Cl)cc1)C(=O)O [CPIB, reference compound] | eliminates DR5 expression | – | – | – | – | – | – | – | – | – | – | – | – | – |
| O=C(O)c1cc2ccccc2c(Cc2c(O)c(C(=O)O)cc3ccccc23)c1O [pamoic acid, Pamoic acid] | reduced or eliminated DR5 expression | strictly blocks | elimination of the ethylene dependent apical hook | significant increase in root length | reversing the constitutive ethylene response | strictly blocks | no evidence of petal inrolling or petal senescence even after Day 8 | almost completely block root growth | progressively shorter roots | nearly double the length of NAA treated roots | both roots and shoots become agravitropic | completely destroys the gravitropic response | also upregulated in the presence of PA; also recorded: normally upregulated following ethylene treatment even in the presence of PA | extremely reduced |
